pEC50, pKi: −log10 of the molar value. Where two headings read alike, the source gives them in different places.
What was measured:
[1] = Metabolic stability in human liver microsomes (HLM); type: in vitro ADME; details: for t1/2: 1 μM, 0.50 mg protein per mL; for microsomal CLint at 1 μM / half-life at 1 μM: both sexes, human, pH 7.4, 0.50 mg protein per mL
Excerpt: HLM Stability. Pooled HLM from adult male and female donors (Corning 452117) were used.

5-HT2A receptor [2] = target: T1, 5-HT2A receptor (Homo sapiens, UniProt P28223); assay: biochemical; type: binding; details: for Ki: 1 nM [^3H]ketanserin, HEK293 stable cell line, read-out: 5-HT2A Receptor Ki (nM) ([^3H]ketanserin); for 5-HT2A receptor binding affinity / potency (in words): radioligand binding
T1 construct: host or cells: HEK293
Description: Affinity of the test compounds for the 5-HT2A receptor was determined in radioligand binding experiments with [^3H]ketanserin by WuXi AppTec (Hong Kong) Limited, using methods adapted from the literature and under conditions described in Table 1.

5-HT2B receptor = target: T2, 5-HT2B receptor (Homo sapiens, UniProt P41595); assay: cell-based
T2 construct: host or cells: HEK293
Description: (§1) Functional Assays at 5-HT2A, 5-HT2B, and 5-HT1A. Agonist activity at 5-HT2A, 5-HT2B, and 5-HT1A receptors was determined using a FLIPR Ca^2+ flux assay at WuXi AppTec (Hong Kong) Limited according to their standard protocols. Briefly, stably transfected cells expressing the receptor of interest (HEK293 for 5-HT2A and 5-HT2B; CHO cells for 5-HT1A) were grown and plated in a 384 well plate and incubated at 37° C. and 5% CO2 overnight. A solution of 250 mM probenecid in 1 mL FLIPR assay buffer was prepared fresh. This was combined with a fluorescent dye (Fluo-4 Direct™) to make a final assay concentration of 2.5 mM. […] The fluorescent dye was then added to the assay plate along with assay buffer to a final volume of 40 μL. The cell plate was incubated for 50 min at 37° C. and 5% CO2 and placed into the FLIPR Tetra along with the compound plate. 10 μL of references and compounds were then transferred from the compound plate into the cell plate and the fluorescent signal was read.

5-HT1A receptor = target: T3, 5-HT1A receptor (Homo sapiens, UniProt P08908); assay: cell-based
T3 construct: host or cells: CHO cells
T3 sequence (P08908 1-422): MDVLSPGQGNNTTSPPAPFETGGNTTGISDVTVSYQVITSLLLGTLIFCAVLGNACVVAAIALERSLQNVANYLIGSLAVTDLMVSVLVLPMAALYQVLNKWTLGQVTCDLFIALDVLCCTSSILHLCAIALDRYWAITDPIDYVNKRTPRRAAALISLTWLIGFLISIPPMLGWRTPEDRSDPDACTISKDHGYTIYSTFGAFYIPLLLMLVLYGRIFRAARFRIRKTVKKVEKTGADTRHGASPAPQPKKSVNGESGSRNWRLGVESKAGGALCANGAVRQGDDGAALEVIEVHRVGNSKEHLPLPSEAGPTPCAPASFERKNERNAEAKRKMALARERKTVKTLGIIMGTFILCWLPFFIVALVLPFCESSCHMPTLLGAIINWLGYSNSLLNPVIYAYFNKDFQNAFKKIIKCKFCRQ
Description: as §1

5-HT1B receptor = 5-HT1B receptor (Homo sapiens, UniProt P28222); assay: cAMP accumulation agonist assay at 5-HT1B; type: cell-based
Description: Disclosed compounds were tested for agonist activity at several serotonin receptor subtypes (5-HT2A, […], 5-HT2C, and 5-HT1A) using Ca^2+ flux functional assays and the 5-HT1B receptor using a cAMP accumulation assay, with the results summarized in Table 4. […] Potent agonist activity was also observed at the other serotonin receptors tested, although the selectivity profile among the receptors varied across compounds. […]. However, at the same time, the N-propyl compounds were more efficacious agonists at 5-HT2B than the corresponding N-methyl compounds. The selectivity of disclosed compounds for 5-HT2A over 5-HT2C and 5-HT1A was less predictable and varied widely across compounds, ranging from ˜1:6 to ˜20:1 (2C/2A) in the case of 5-HT2C and from ˜1:4 to >100:1 (1A/2A) in the case of 5-HT1A. […] An azetidinyl amide substituent tended to increase potency at 5-HT1A relative to 5-HT2A.
Functional Assay at 5-HT1B. Agonist activity at 5-HT1B was determined using a cAMP accumulation protocol at WuXi AppTec (Hong Kong) Limited according to their standard protocols. Briefly, stably transfected cells were plated in an OptiPlate-384 well plate, incubated at RT for 60 mins, and cAMP standard solution (800 nM, 10 μL) was added to the blank well. Then, 10 μL detection reagent was added to each well, the plate incubated for 60 mins at RT, and the plate read using EnVision.

5-HT2A receptor [3] = target: T1, 5-HT2A receptor; assay: cell-based; type: cell-based
Description: as §1

[4] = Metabolic stability in rat liver microsomes (RLM); details: for t1/2: RLM, 0.50 mg protein per mL; for microsomal CLint at 1 μM: both, rat, pooled rat liver microsomes, pH 7.4
[5] = Metabolic stability in mouse liver microsomes (MLM); type: in vitro ADME; details: 0.50 mg protein per mL; for t1/2: MLM (CD-1), 1 μM; for microsomal CLint at 1 μM: mouse, pooled mouse liver microsomes, pH 7.4, MLM (CD-1)
Excerpt: MLM Stability Pooled MLM from CD-1 mice (BIOIVT M00501) were used.

[6] = Ca^2+ flux, agonist, read-out: 5-HT2B EC50
[7] = Ca^2+ flux, agonist, read-out: 5-HT1A EC50
[8] = cAMP, agonist, read-out: 5-HT1B EC50
[9] = Ca^2+ flux, agonist, read-out: 5-HT2A EC50

Chain of 5-HT1B receptor (P28222 whole entry): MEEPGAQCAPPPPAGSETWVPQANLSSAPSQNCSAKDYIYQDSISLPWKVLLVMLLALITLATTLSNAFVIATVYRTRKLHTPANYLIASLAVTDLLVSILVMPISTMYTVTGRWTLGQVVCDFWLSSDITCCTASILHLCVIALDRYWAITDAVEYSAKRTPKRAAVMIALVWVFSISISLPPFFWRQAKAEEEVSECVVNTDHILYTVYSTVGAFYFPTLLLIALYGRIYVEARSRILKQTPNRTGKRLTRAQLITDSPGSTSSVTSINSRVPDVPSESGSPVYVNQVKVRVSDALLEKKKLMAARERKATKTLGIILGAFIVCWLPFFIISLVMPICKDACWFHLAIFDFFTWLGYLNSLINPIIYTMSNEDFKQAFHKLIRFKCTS
T1 sequence (P28223 whole entry): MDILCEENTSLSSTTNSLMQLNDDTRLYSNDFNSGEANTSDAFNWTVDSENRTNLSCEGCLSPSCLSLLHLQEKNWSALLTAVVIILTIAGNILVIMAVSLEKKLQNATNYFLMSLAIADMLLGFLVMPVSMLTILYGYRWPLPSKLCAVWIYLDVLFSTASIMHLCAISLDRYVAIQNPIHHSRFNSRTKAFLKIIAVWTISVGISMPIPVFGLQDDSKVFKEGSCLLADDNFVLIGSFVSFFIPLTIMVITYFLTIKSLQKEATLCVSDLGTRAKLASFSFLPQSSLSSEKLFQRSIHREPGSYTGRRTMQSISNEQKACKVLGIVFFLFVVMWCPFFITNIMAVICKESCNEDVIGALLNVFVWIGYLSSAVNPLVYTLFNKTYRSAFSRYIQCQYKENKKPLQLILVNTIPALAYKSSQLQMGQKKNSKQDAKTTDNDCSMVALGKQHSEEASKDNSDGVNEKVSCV
T2 sequence (P41595 whole entry): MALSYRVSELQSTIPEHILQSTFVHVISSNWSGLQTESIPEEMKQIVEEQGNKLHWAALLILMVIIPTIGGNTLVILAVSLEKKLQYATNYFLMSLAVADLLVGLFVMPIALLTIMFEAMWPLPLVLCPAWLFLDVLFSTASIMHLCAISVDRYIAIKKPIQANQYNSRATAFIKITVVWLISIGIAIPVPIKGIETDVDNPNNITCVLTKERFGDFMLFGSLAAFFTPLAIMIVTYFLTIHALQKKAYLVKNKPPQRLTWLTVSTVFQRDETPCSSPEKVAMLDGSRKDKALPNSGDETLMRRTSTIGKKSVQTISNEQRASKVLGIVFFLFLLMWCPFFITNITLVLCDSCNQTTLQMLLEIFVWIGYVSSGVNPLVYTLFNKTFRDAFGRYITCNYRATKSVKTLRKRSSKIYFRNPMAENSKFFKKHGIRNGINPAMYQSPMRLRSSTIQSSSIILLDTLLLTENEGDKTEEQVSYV

| Structure (SMILES) | t1/2 [1] [min] | microsomal CLint at 1 μM ([1]; pooled human liver microsomes) [µL/min/mg] | Ki (5-HT2A receptor [2]) [nM] | pEC50 (5-HT2B receptor; [6]) | pEC50 (5-HT1A receptor; [7]) | pEC50 (5-HT1B receptor; [8]) | pEC50 (5-HT2A receptor [3]; [9]) | t1/2 [4] [min] | microsomal CLint at 1 μM [4] [µL/min/mg] | t1/2 [5] [min] | microsomal CLint at 1 μM [5] [µL/min/mg] | 5-HT1A % Act @ Max Dose (5-HT1A receptor; Ca^2+ flux, agonist) [%] | 5-HT2B % Act @ Max Dose (5-HT2B receptor; Ca^2+ flux, agonist) [%] | half-life at 1 μM ([1]; pooled human liver microsomes) [min] | 5-HT1B % Act @ Max Dose (5-HT1B receptor; cAMP, agonist) [%] | 5-HT2A % Act @ Max Dose (5-HT2A receptor [3]; Ca^2+ flux, agonist) [%] | also measured |
| --- | --- | --- | --- | --- | --- | --- | --- | --- | --- | --- | --- | --- | --- | --- | --- | --- | --- |
| CCN(CC)C(=O)[C@@H]1C=C2c3cccc4[nH]cc(c34)C[C@H]2N(Cc2ccccc2O)C1 [Compound 16, (6aR,9R)—N,N-diethyl-7-(2-hydroxybenzyl)-4,6,6a,7,8,9-hexahydroindolo[4,3-fg]quinoline-9-carboxamide] | 4.9 | 286 | 2.18 | < 5.00 | < 5.00 | 6.17 | 6.26 | 2.2 | 616 | 1.3 | 1050 |  |  |  |  |  |  |
| CCN(CC)C(=O)[C@@H]1C=C2c3cccc4[nH]cc(c34)C[C@H]2N(CCc2ccc(OC)cc2)C1 [Compound 21, (6aR,9R)—N,N-diethyl-7-(4-methoxyphenethyl)-4,6,6a,7,8,9-hexahydroindolo[4,3-fg]quinoline-9-carboxamide] | 3.8 | 368 | 1.93 | < 5.00 | < 5.00 | 5.56 | 6.21 | 4.3 | 323 | 1.9 | 717 | 8.2 |  |  |  |  |  |
| CCN(CC)C(=O)[C@@H]1C=C2c3cccc4[nH]cc(c34)C[C@H]2N(CCc2cccc(OC)c2)C1 [Compound 20, (6aR,9R)—N,N-diethyl-7-(3-methoxyphenethyl)-4,6,6a,7,8,9-hexahydroindolo[4,3-fg]quinoline-9-carboxamide] | 2.1 | 649 | 1.03 | < 5.00 | < 5.00 | < 5.00 | 6.58 | 1.2 | 1150 | 0.9 | 1550 |  | 3.60 |  |  |  |  |
| CCN(CC)C(=O)[C@@H]1C=C2c3cccc4[nH]cc(c34)C[C@H]2N(Cc2ccccn2)C1 [Compound 22, (6aR,9R)—N,N-diethyl-7-(pyridin-2-ylmethyl)-4,6,6a,7,8,9-hexahydroindolo[4,3-fg]quinoline-9-carboxamide] | 23.8 | 58.2 | 28.4 | < 5.00 | 5.11 | 6.07 | 6.13 | 13.2 | 105 | 9.2 | 150 |  |  |  |  |  |  |
| CCN(CC)C(=O)[C@@H]1C=C2c3cccc4c3C(CN4)C[C@H]2N(C)C1 (mixture of isomers) [Compound 37, (6aR,9R)—N,N-diethyl-7-methyl-4,5,5a,6,6a,7,8,9-octahydroindolo[4,3-fg]quinoline-9-carboxamide] |  | < 9.6 | 11.4 | 6.33 | 7.76 | 7.71 | 7.12 |  |  |  |  | 108.98 | 24.06 | > 145 | 90.74 | 76.37 | 5-HT2A receptor binding affinity / potency (in words) (5-HT2A receptor [2]): reduced in potency |
| CCC(CC)NC(=O)[C@@H]1C=C2c3cccc4[nH]c(Br)c(c34)C[C@H]2N(C)C1 [Compound 44, (6aR,9R)-5-bromo-N-(pentan-3-yl)-7-methyl-4,6,6a,7,8,9-hexahydroindolo[4,3-fg]quinoline-9-carboxamide] |  | 153 | 0.76 | < 5.00 | < 5.00 | 5.90 | 6.89 |  |  |  |  | 16.56 | 15.68 | 9 | 68.53 | 29.90 |  |
| CCCN1C[C@H](C(=O)N2[C@@H](C)C[C@@H]2C)C=C2c3cccc4[nH]c(Br)c(c34)C[C@H]21 [Compound 47, ((6aR,9R)-5-bromo-7-propyl-4,6,6a,7,8,9-hexahydroindolo[4,3-fg]quinolin-9-yl)((2S,4S)-2,4-dimethylazetidin-1-yl)methanone] |  | 249 | 1.38 | 5.84 | 7.03 | 5.30 | 6.93 |  |  |  |  | 62.15 | 87.01 | 5.6 | 76.22 | 57.01 |  |
| CCN(CC)C(=O)[C@@H]1C=C2c3cccc4[nH]c(Br)c(c34)C[C@H]2N(C)C1 [Compound 35, (6aR,9R)-5-bromo-N,N-diethyl-7-methyl-4,6,6a,7,8,9-hexahydroindolo[4,3-fg]quinoline-9-carboxamide] |  |  |  |  |  |  |  |  |  |  |  | −1.58 | −0.13 |  | 76.8 | 67.74 | half-life at 1 μM ([1]; microsomes): 24.2 min; microsomal CLint at 1 μM ([1]; microsomes): 57.4 µL/min/mg; pKi (5-HT2A receptor [2]): 9.14; pEC50 (5-HT2B receptor): < 5.00; pEC50 (5-HT1A receptor): < 5.50; pEC50 (5-HT1B receptor): 6.67; pEC50 (5-HT2A receptor [3]): 7.18 |
| C[C@H]1C[C@H](C)N1C(=O)[C@@H]1C=C2c3cccc4[nH]cc(c34)C[C@H]2N(CCCF)C1 [Compound 26, ((2S,4S)-2,4-dimethylazetidin-1-yl)((6aR,9R)-7-(3-fluoropropyl)-4,6,6a,7,8,9-hexahydroindolo[4,3-fg]quinolin-9-yl)methanone] |  | 67.7 | 11.3 | 6.37 | 8.44 | 6.13 | 7.81 |  |  |  |  | 97.94 | 100.66 | 20.5 | 77.16 | 83.23 |  |
| CCCN1C[C@H](C(=O)N(CC)CC)C=C2c3cccc4c3C(CN4)C[C@H]21 (mixture of isomers) [Compound 36, (6aR,9R)—N,N-diethyl-7-propyl-4,5,5a,6,6a,7,8,9-octahydroindolo[4,3-fg]quinoline-9-carboxamide] |  | 42.2 | 10.7 | 6.20 | 8.32 | 7.64 | 7.30 |  |  |  |  | 88.68 | 110.53 | 32.8 | 97.51 | 77.54 | 5-HT2A receptor binding affinity / potency (in words) (5-HT2A receptor [2]): reduced in potency |
